# From ChEMBL document CHEMBL1139874, “New diphenylacetylenes as probes for positron emission tomographic imaging of amyloid plaques” (J Med Chem, 2007)
# What was measured:
# [1] = target: Amyloid-beta precursor protein (Homo sapiens, UniProt P05067); experiment: Displacement of [125I]IMPY from human beta amyloid plaque in brain homogenates; assay type: tissue-based
# Kidney [2] = experiment: Biodistribution in ICR mouse kidney at 5 to 10 uCi, iv after 30 mins; assay type: ADME, organism-based; details: in vivo, 0.5 h
# Zone of skin [3] = experiment: Biodistribution in ICR mouse skin at 5 to 10 uCi, iv after 2 hrs; assay type: ADME, organism-based; details: in vivo
# Heart [4] = experiment: Biodistribution in ICR mouse heart at 5 to 10 uCi, iv after 2 mins; assay type: ADME, organism-based; details: in vivo
# Spleen [5] = experiment: Biodistribution in ICR mouse spleen at 5 to 10 uCi, iv after 2 mins; assay type: ADME, organism-based; details: in vivo
# Kidney [6] = experiment: Biodistribution in ICR mouse kidney at 5 to 10 uCi, iv after 1 hr; assay type: ADME, organism-based; details: in vivo
# Blood [7] = experiment: Biodistribution in ICR mouse blood at 5 to 10 uCi, iv after 2 hrs; assay type: ADME, organism-based; details: in vivo
# [8] = Partition coefficient, log P at pH 7.4; assay type: physicochemical; details: octanol/water
# Muscle tissue [9] = experiment: Biodistribution in ICR mouse muscle at 5 to 10 uCi, iv after 2 hrs; assay type: ADME, organism-based; details: in vivo
# Zone of skin [10] = experiment: Biodistribution in ICR mouse skin at 5 to 10 uCi, iv after 30 mins; assay type: ADME, organism-based; details: in vivo, 0.5 h
# Brain [11] = experiment: Biodistribution in ICR mouse brain at 5 to 10 uCi, iv after 2 hrs; assay type: ADME, organism-based; details: in vivo
# Liver [12] = experiment: Biodistribution in ICR mouse liver at 5 to 10 uCi, iv after 30 mins; assay type: ADME, organism-based; details: in vivo, 0.5 h
# Muscle tissue [13] = experiment: Biodistribution in ICR mouse muscle at 5 to 10 uCi, iv after 2 mins; assay type: ADME, organism-based; details: in vivo
# Spleen [14] = experiment: Biodistribution in ICR mouse spleen at 5 to 10 uCi, iv after 30 mins; assay type: ADME, organism-based; details: in vivo, 0.5 h
# Blood [15] = experiment: Biodistribution in ICR mouse blood at 5 to 10 uCi, iv after 2 mins; assay type: ADME, organism-based; details: in vivo
# Heart [16] = experiment: Biodistribution in ICR mouse heart at 5 to 10 uCi, iv after 2 hrs; assay type: ADME, organism-based; details: in vivo
# Spleen [17] = experiment: Biodistribution in ICR mouse spleen at 5 to 10 uCi, iv after 2 hrs; assay type: ADME, organism-based; details: in vivo
# Kidney [18] = experiment: Biodistribution in ICR mouse kidney at 5 to 10 uCi, iv after 2 hrs; assay type: ADME, organism-based; details: in vivo
# Spleen [19] = experiment: Biodistribution in ICR mouse spleen at 5 to 10 uCi, iv after 1 hr; assay type: ADME, organism-based; details: in vivo
# Lung [20] = experiment: Biodistribution in ICR mouse lung at 5 to 10 uCi, iv after 30 mins; assay type: ADME, organism-based; details: in vivo, 0.5 h
# Lung [21] = experiment: Biodistribution in ICR mouse lung at 5 to 10 uCi, iv after 2 hrs; assay type: ADME, organism-based; details: in vivo
# Brain [22] = experiment: Biodistribution in ICR mouse brain at 5 to 10 uCi, iv after 1 hr; assay type: ADME, organism-based; details: in vivo
# Bone [23] = experiment: Biodistribution in ICR mouse bone at 5 to 10 uCi, iv after 2 mins; assay type: ADME, organism-based, Bone element; details: in vivo
# Lung [24] = experiment: Biodistribution in ICR mouse lung at 5 to 10 uCi, iv after 2 mins; assay type: ADME, organism-based; details: in vivo
# Brain [25] = experiment: Biodistribution in ICR mouse brain at 5 to 10 uCi, iv after 30 mins; assay type: ADME, organism-based; details: in vivo, 0.5 h
# Bone [26] = experiment: Biodistribution in ICR mouse bone at 5 to 10 uCi, iv after 1 hr; assay type: ADME, organism-based, Bone element; details: in vivo
# Muscle tissue [27] = experiment: Biodistribution in ICR mouse muscle at 5 to 10 uCi, iv after 30 mins; assay type: ADME, organism-based; details: in vivo, 0.5 h
# Kidney [28] = experiment: Biodistribution in ICR mouse kidney at 5 to 10 uCi, iv after 2 mins; assay type: ADME, organism-based; details: in vivo
# Zone of skin [29] = experiment: Biodistribution in ICR mouse skin at 5 to 10 uCi, iv after 2 mins; assay type: ADME, organism-based; details: in vivo
# Liver [30] = experiment: Biodistribution in ICR mouse liver at 5 to 10 uCi, iv after 1 hr; assay type: ADME, organism-based; details: in vivo
# Blood [31] = experiment: Biodistribution in ICR mouse blood at 5 to 10 uCi, iv after 1 hr; assay type: ADME, organism-based; details: in vivo
# Bone [32] = experiment: Biodistribution in ICR mouse bone at 5 to 10 uCi, iv after 30 mins; assay type: ADME, organism-based, Bone element; details: in vivo, 0.5 h
# Heart [33] = experiment: Biodistribution in ICR mouse heart at 5 to 10 uCi, iv after 30 mins; assay type: ADME, organism-based; details: in vivo, 0.5 h
# Zone of skin [34] = experiment: Biodistribution in ICR mouse skin at 5 to 10 uCi, iv after 1 hr; assay type: ADME, organism-based; details: in vivo
# Heart [35] = experiment: Biodistribution in ICR mouse heart at 5 to 10 uCi, iv after 1 hr; assay type: ADME, organism-based; details: in vivo
# Lung [36] = experiment: Biodistribution in ICR mouse lung at 5 to 10 uCi, iv after 1 hr; assay type: ADME, organism-based; details: in vivo
# Brain [37] = experiment: Biodistribution in ICR mouse brain at 5 to 10 uCi, iv after 2 mins; assay type: ADME, organism-based; details: in vivo
# Liver [38] = experiment: Biodistribution in ICR mouse liver at 5 to 10 uCi, iv after 2 hrs; assay type: ADME, organism-based; details: in vivo
# Bone [39] = experiment: Biodistribution in ICR mouse bone at 5 to 10 uCi, iv after 2 hrs; assay type: ADME, organism-based, Bone element; details: in vivo
# Muscle tissue [40] = experiment: Biodistribution in ICR mouse muscle at 5 to 10 uCi, iv after 1 hr; assay type: ADME, organism-based; details: in vivo
# Liver [41] = experiment: Biodistribution in ICR mouse liver at 5 to 10 uCi, iv after 2 mins; assay type: ADME, organism-based; details: in vivo
# Blood [42] = experiment: Biodistribution in ICR mouse blood at 5 to 10 uCi, iv after 30 mins; assay type: ADME, organism-based; details: in vivo, 0.5 h
# Amyloid-beta precursor protein, sequence (P05067 whole entry): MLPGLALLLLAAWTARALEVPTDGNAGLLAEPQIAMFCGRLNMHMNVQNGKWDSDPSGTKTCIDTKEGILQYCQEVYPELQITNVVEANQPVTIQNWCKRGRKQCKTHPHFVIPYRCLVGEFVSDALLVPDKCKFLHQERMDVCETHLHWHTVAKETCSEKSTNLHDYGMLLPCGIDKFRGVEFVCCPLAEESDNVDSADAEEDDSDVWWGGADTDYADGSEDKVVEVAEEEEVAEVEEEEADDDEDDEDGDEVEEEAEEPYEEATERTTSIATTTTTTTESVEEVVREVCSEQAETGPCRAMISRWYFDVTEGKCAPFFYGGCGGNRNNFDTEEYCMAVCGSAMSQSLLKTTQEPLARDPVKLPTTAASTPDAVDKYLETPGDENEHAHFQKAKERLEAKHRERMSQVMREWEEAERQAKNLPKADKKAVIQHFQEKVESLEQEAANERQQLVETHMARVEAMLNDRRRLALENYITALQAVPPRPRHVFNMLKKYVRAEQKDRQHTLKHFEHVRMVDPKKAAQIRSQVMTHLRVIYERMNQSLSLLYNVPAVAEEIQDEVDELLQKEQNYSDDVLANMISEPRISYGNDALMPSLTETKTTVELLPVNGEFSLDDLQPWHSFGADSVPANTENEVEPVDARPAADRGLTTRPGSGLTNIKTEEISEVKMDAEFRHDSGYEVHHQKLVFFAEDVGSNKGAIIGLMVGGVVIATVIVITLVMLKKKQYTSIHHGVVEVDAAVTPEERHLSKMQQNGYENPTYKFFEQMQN
structure (smiles),measurement,setting,value
Nc1ccc(C#Cc2ccc(O)cc2)cc1,Ki,[1],106 nM
Nc1ccc(C#Cc2ccc(OCCOCCF)cc2)cc1,Ki,[1],12 nM
CN(C)c1ccc(C#Cc2ccc(OCCOCCO)cc2)cc1,Ki,[1],3.8 nM
CN(C)c1ccc(C#Cc2ccc(OCCOCCOCCO)cc2)cc1,Ki,[1],3.4 nM
CNc1ccc(C#Cc2ccc(OCCOCCOCC[18F])cc2)cc1,Drug uptake,Kidney [2],2.9 % ID/g
same,Drug uptake,Zone of skin [3],0.6 % ID/g
same,Drug uptake,Heart [4],4.21 % ID/g
same,Drug uptake,Spleen [5],2.69 % ID/g
same,Drug uptake,Kidney [6],2.4 % ID/g
same,Drug uptake,Blood [7],3.17 % ID/g
same,logD,[8],3.07
same,Drug uptake,Muscle tissue [9],0.39 % ID/g
same,Drug uptake,Zone of skin [10],1.4 % ID/g
same,Drug uptake,Brain [11],0.38 % ID/g
same,Drug uptake,Liver [12],14.8 % ID/g
same,Drug uptake,Muscle tissue [13],1.97 % ID/g
same,Drug uptake,Spleen [14],1.22 % ID/g
same,Drug uptake,Blood [15],3.28 % ID/g
same,Drug uptake,Heart [16],0.96 % ID/g
same,Drug uptake,Spleen [17],1.02 % ID/g
same,Drug uptake,Kidney [18],1.8 % ID/g
same,Drug uptake,Spleen [19],0.95 % ID/g
same,Drug uptake,Lung [20],2.1 % ID/g
same,Drug uptake,Lung [21],1.72 % ID/g
same,Drug uptake,Brain [22],0.37 % ID/g
same,Drug uptake,Bone [23],1.5 % ID/g
same,Drug uptake,Lung [24],4.64 % ID/g
same,Drug uptake,Brain [25],0.42 % ID/g
same,Drug uptake,Bone [26],0.65 % ID/g
same,Drug uptake,Muscle tissue [27],0.61 % ID/g
same,Drug uptake,Kidney [28],4.74 % ID/g
same,Drug uptake,Zone of skin [29],1.24 % ID/g
same,Drug uptake,Liver [30],10.2 % ID/g
same,Drug uptake,Blood [31],3.22 % ID/g
same,Drug uptake,Bone [32],0.66 % ID/g
same,Drug uptake,Heart [33],1.4 % ID/g
same,Drug uptake,Zone of skin [34],0.95 % ID/g
same,Drug uptake,Heart [35],1.24 % ID/g
same,Drug uptake,Lung [36],2.04 % ID/g
same,Drug uptake,Brain [37],4.55 % ID/g
same,Drug uptake,Liver [38],9.14 % ID/g
same,Drug uptake,Bone [39],0.82 % ID/g
same,Drug uptake,Muscle tissue [40],0.62 % ID/g
same,Drug uptake,Liver [41],25.8 % ID/g
same,Drug uptake,Blood [42],3.28 % ID/g
C(#Cc1ccccc1)c1ccccc1 [DIPHENYLACETYLENE],Ki,[1],175 nM
